Source: PMC11643720, “Addressing the Evolution of Cardenolide Formation in Iridoid-Synthesizing Plants: Site-Directed Mutagenesis of PRISEs (Progesterone-5β-Reductase/Iridoid Synthase-like Enzymes) of Plantago Species” (Molecules, 2024)
Like-named read-outs stand apart in the source and are kept apart here.

How the values were obtained:
[1] = test system: T1, rPlP5βR1 (PlP5βR1, PlP5βR); experiment: NADPH oxidation at […] nm, Michaelis-Menten; type: biochemical, Plantago lanceolata; details: 0.2 mM NADPH, phosphate buffer pH 8.0, 40 °C; SD < 25%
T1 construct: gene P5βR1; full-length CDS 1170 bp, 389 aa; pDEST17, N-terminal 6xHis tag, E. coli SoluBL21 (mutants BL21(DE3)), Ni-NTA; printed WKF numbers of the two species may be swapped; wild type has L156 and L346 (abstract misprints A156, F346)

[2] = test system: T2, rPmdP5βR1 (PmdP5βR1, PmdP5βR); experiment: NADPH oxidation at […] nm, Michaelis-Menten; type: biochemical, Plantago media; details: 0.2 mM NADPH, phosphate buffer pH 8.0, 40 °C, SD < 25%
T2 construct: gene P5βR1; full-length CDS 1170 bp, 389 aa; pDEST17, N-terminal 6xHis tag, E. coli SoluBL21 (mutants BL21(DE3)), Ni-NTA; printed WKF numbers of the two species may be swapped; wild type has F156 and A346

[3] = test system: T1, rPlP5βR1 (PlP5βR1, PlP5βR); experiment: NADPH oxidation at […] nm, Michaelis-Menten; type: biochemical, Plantago lanceolata; details: 0.2 mM NADPH, phosphate buffer pH 8.0, 40 °C, SD < 25%, read-out: rPlP5βR1 / L156F
[4] = test system: T2, rPmdP5βR1 (PmdP5βR1, PmdP5βR); experiment: NADPH oxidation at […] nm, Michaelis-Menten; type: biochemical, Plantago media; details: 0.2 mM NADPH, phosphate buffer pH 8.0, 40 °C, SD < 25%, read-out: rPmdP5βR1 / DMT
[5] = test system: T1, rPlP5βR1 (PlP5βR1, PlP5βR); experiment: NADPH oxidation at […] nm, Michaelis-Menten; type: biochemical, Plantago lanceolata; details: 0.2 mM NADPH, phosphate buffer pH 8.0, 40 °C, SD < 25%, read-out: rPlP5βR1 / DMT
[6] = test system: T3, rPlP5βR1 (PlP5βR1, PlP5βR); details: read-out: rPlP5βR1 / L346A; 0.2 mM NADPH, phosphate buffer pH 8.0, 40 °C, DMSO added at 0.4-0.6 mM progesterone; SD < 25%
T3 construct: gene P5βR1

[7] = test system: T4, rPmdP5βR1 (PmdP5βR1, PmdP5βR); details: read-out: rPmdP5βR1 / F156L; 0.2 mM NADPH, phosphate buffer pH 8.0, 40 °C, DMSO added at 0.4-0.6 mM progesterone; SD < 25%
T4 construct: gene P5βR1

[8] = test system: T4, rPmdP5βR1 (PmdP5βR1, PmdP5βR); details: read-out: rPmdP5βR1 / A346L; 0.2 mM NADPH, phosphate buffer pH 8.0, 40 °C, DMSO added at 0.4-0.6 mM progesterone; SD < 25%
[9] = DMSO added at 0.4-0.6 mM progesterone

SMILES | Km [1] [µM] | Km [2] [µM] | Km [3] [µM] | Km [2, 9] [µM] | Km [3, 9] [µM] | Km [4, 9] [µM] | Km [5, 9] [µM] | Km [6] [µM] | Km [7] [µM] | Km [8] [µM] | Km [5] [µM] | Km [4] [µM]
O=C1C=CCCC1 [2-cyclohexen-1-one] | 66 | 46 | 16 | – | – | – | – | – | – | – | – | –
CC(=O)[C@H]1CC[C@H]2[C@@H]3CCC4=CC(=O)CC[C@]4(C)[C@H]3CC[C@]12C [progesterone] | – | – | – | 67 | 451 | 587 | 44 | 170 | 128 | 218 | – | –
C=CC(C)=O [methyl vinyl ketone] | 100 | 33 | – | – | – | – | – | – | – | – | 216 | –
C/C(C=O)=C\CC/C(C)=C/C=O [8-oxogeranial] | 100 | 19 | – | – | – | – | – | – | – | – | 10 | 7
